Measurements reported in patent US20240115654A1, “INTRAVENOUS ADMINISTRATION OF ENGINEERED ANTIMICROBIAL AMPHIPHILIC PEPTIDES” (priority 2021, published 2024).
Values after ≈ are worked out from the molar mass of the structure shown. Peptide text beside a SMILES is read from it.

Tests used:
Format in all cases: cell-based
[1] = tested on: Acinetobacter baumannii ATCC 19606 (non-MDR); conditions: ATCC 19606
Protocol: (§1) Each peptide was formulated in PBS buffer prior to testing. Peptides of SEQ ID NO:5 and SEQ ID NO:8 were brought up in 100% DMSO with 0.002% polysorbate-80 at 1.28 mg/mL (40× the highest final test concentration of 32 mcg/mL). Final test concentration of DMSO was 2.5% in the assay at the first dilution for those two compounds.
(§2) Mueller Hinton II broth (MHB II; BD; Lot Nos. 6258541 and 7143896) was used for MIC testing of aerobic organisms. 0.002% polysorbate 80 (P80) was added to the test medium.
(§3) MIC values were determined using a broth microdilution procedure described by CLSI (1, 3). Automated liquid handlers (Multidrop 384, Labsystems, Helsinki, Finland; Biomek 2000 and Biomek FX, Beckman Coulter, Fullerton CA) were used to conduct serial dilutions and liquid transfers.
(§4) To prepare the drug mother plates, which would provide the serial peptide dilutions for the replicate daughter plates, the wells of columns 2-12 of standard 96-well microdilution plates (Costar 3795) were filled with 150 μl of the designated diluent for each row of peptide. The test articles and comparator compounds (300 μl at 40× the highest concentration to be tested) were dispensed into the appropriate wells in column 1. The Biomek 2000 was then used to make 2-fold serial dilutions in the mother plates from column 1 through column 11. The wells of Column 12 contained no drug and served as the organism growth control wells for the assay.
(§5) The daughter plates were loaded with 185 μL per well of MHB II using the Multidrop 384. The daughter plates were completed on the Biomek FX instrument which transferred 5 uL of peptide solution from each well of a mother plate to the corresponding well of each daughter plate in a single step. A standardized inoculum of each test organism was prepared per CLSI methods. The inoculum for each organism was dispensed into sterile reservoirs divided by length (Beckman Coulter), and the Biomek 2000 was used to inoculate the plates. Daughter plates were placed on the Biomek 2000 work surface in reverse orientation so that inoculation took place from low to high drug concentration. The plates were then inoculated with 10 μL of the inoculum resulting in a final cell density of approximately 5×10^5 CFU/mL, per well.
(§6) Plates were stacked 3-4 high, covered with a lid on the top plate, placed in plastic bags, and incubated at 35° C. for 16 to 20 hrs. Following incubation, the microplates were removed from the incubator and viewed from the bottom using a plate viewer. […] The MIC was read and recorded as the lowest concentration of peptide that inhibited visible growth of the organism.

[2] = tested on: Enterococcus faecalis ATCC 29212 (VSE; QC); conditions: ATCC 29212
Protocol: as §1, §2, §3, §4, §5, §6

[3] = tested on: Enterococcus faecalis ATCC 700802 (V583 VRE); conditions: ATCC 700802
Protocol: as §1, §2, §3, §4, §5, §6

[4] = tested on: Enterococcus faecium ATCC 51559 (VRE); conditions: ATCC 51559
Protocol: as §1, §2, §3, §4, §5, §6

[5] = tested on: Escherichia coli ATCC 25922 (QC); conditions: ATCC 25922
Protocol: as §1, §2, §3, §4, §5, §6

[6] = tested on: Escherichia coli ATCC 35218 (ESBL); conditions: ATCC 35218
Protocol: as §1, §2, §3, §4, §5, §6

[7] = tested on: Escherichia coli ATCC BAA-2471 (NDM-1); conditions: ATCC BAA-2471
Protocol: as §1, §2, §3, §4, §5, §6

[8] = tested on: Klebsiella pneumoniae ATCC BAA-1705 (KPC); conditions: ATCC BAA-1705
Protocol: as §1, §2, §3, §4, §5, §6

[9] = tested on: Pseudomonas aeruginosa ATCC 27853 (non-MDR; QC); conditions: ATCC 27853
Protocol: as §1, §2, §3, §4, §5, §6

[10] = tested on: Pseudomonas aeruginosa ATCC BAA-2109 (MDR); conditions: ATCC BAA-2109
Protocol: as §1, §2, §3, §4, §5, §6

[11] = tested on: Staphylococcus aureus ATCC 29213 (MSSA; QC); conditions: ATCC 29213
Protocol: as §1, §2, §3, §4, §5, §6

[12] = tested on: Staphylococcus aureus ATCC 43300 (MRSA); conditions: ATCC 43300
Protocol: as §1, §2, §3, §4, §5, §6

[13] = tested on: Staphylococcus aureus NRS382 (USA100; HA-MRSA); conditions: USA100
Protocol: as §1, §2, §3, §4, §5, §6

[14] = tested on: Streptococcus pneumoniae ATCC 49619 (QC); conditions: ATCC 49619
Protocol: as §1, §2, §3, §4, §5, §6

[15] = tested on: Streptococcus pyogenes ATCC 49399; conditions: ATCC 49399
Protocol: as §1, §2, §3, §4, §5, §6

[16] = tested on: Acinetobacter baumannii ATCC BAA-1797 (MDR); conditions: ATCC BAA-1797
Protocol: as §1, §2, §3, §4, §5, §6

| MIC [1] [µg/mL] | MIC [2] [µg/mL] | MIC [3] [µg/mL] | MIC [4] [µg/mL] | MIC [5] [µg/mL] | MIC [6] [µg/mL] | MIC [7] [µg/mL] | MIC [8] [µg/mL] | MIC [9] [µg/mL] | MIC [10] [µg/mL] | MIC [11] [µg/mL] | MIC [12] [µg/mL] | MIC [13] [µg/mL] | MIC [14] [µg/mL] | MIC [15] [µg/mL] | MIC [16] [µg/mL] | SMILES |
| --- | --- | --- | --- | --- | --- | --- | --- | --- | --- | --- | --- | --- | --- | --- | --- | --- |
| 8 (≈ 2.63 µM) | 32 (≈ 10.5 µM) | >32 | 4 (≈ 1.32 µM) | 4 (≈ 1.32 µM) | 4 (≈ 1.32 µM) | 4 (≈ 1.32 µM) | 32 (≈ 10.5 µM) | 4 (≈ 1.32 µM) | 2 (≈ 0.658 µM) | 8 (≈ 2.63 µM) | 8 (≈ 2.63 µM) | 8 (≈ 2.63 µM) | 32 (≈ 10.5 µM) | 16 (≈ 5.26 µM) | – | CC[C@H](C)[C@H](N)C(=O)N[C@@H](CCCNC(=N)N)C(=O)N[C@@H](CCCNC(=N)N)C(=O)N[C@@H](CCCNC(=N)N)C(=O)N[C@H](C(=O)N[C@@H](CCCNC(=N)N)C(=O)N[C@@H](CCCNC(=N)N)C(=O)N[C@H](C(=O)N[C@@H](CCCNC(=N)N)C(=O)N[C@@H](CCCNC(=N)N)C(=O)N[C@@H](CCCNC(=N)N)C(=O)N[C@H](C(=O)N[C@@H](CCCNC(=N)N)C(=O)N[C@@H](CCCNC(=N)N)C(=O)N[C@H](C(=O)N[C@@H](CCCNC(=N)N)C(=O)N[C@@H](CCCNC(=N)N)C(=O)N[C@@H](CCCNC(=N)N)C(=O)N[C@H](C(=O)N[C@@H](CCCNC(=N)N)C(=O)N[C@@H](CCCNC(=N)N)C(=O)O)[C@@H](C)CC)[C@@H](C)CC)[C@@H](C)CC)[C@@H](C)CC)[C@@H](C)CC [SEQ ID NO: 3] (H-IRRRIRRIRRRIRRIRRRIRR-OH; N-terminus and C-terminus assumed) |
| 16 (≈ 5.1 µM) | 16 (≈ 5.1 µM) | 16 (≈ 5.1 µM) | 8 (≈ 2.55 µM) | 16 (≈ 5.1 µM) | 16 (≈ 5.1 µM) | 32 (≈ 10.2 µM) | >32 | >32 | 16 (≈ 5.1 µM) | 16 (≈ 5.1 µM) | 8 (≈ 2.55 µM) | 8 (≈ 2.55 µM) | 32 (≈ 10.2 µM) | 32 (≈ 10.2 µM) | – | CC(C)[C@H](N)C(=O)N[C@@H](Cc1c[nH]c2ccccc12)C(=O)N[C@@H](CCCNC(=N)N)C(=O)N[C@@H](Cc1c[nH]c2ccccc12)C(=O)N[C@H](C(=O)N[C@@H](CCCNC(=N)N)C(=O)N[C@@H](CCCNC(=N)N)C(=O)N[C@H](C(=O)N[C@@H](Cc1c[nH]c2ccccc12)C(=O)N[C@@H](CCCNC(=N)N)C(=O)N[C@@H](Cc1c[nH]c2ccccc12)C(=O)N[C@H](C(=O)N[C@@H](CCCNC(=N)N)C(=O)N[C@@H](CCCNC(=N)N)C(=O)N[C@H](C(=O)N[C@@H](Cc1c[nH]c2ccccc12)C(=O)N[C@@H](CCCNC(=N)N)C(=O)N[C@@H](Cc1c[nH]c2ccccc12)C(=O)N[C@H](C(=O)N[C@@H](CCCNC(=N)N)C(=O)N[C@@H](CCCNC(=N)N)C(=O)O)C(C)C)C(C)C)C(C)C)C(C)C)C(C)C [SEQ ID NO: 5] (H-VWRWVRRVWRWVRRVWRWVRR-OH; N-terminus and C-terminus assumed) |
| 8 (≈ 2.75 µM) | 8 (≈ 2.75 µM) | 8 (≈ 2.75 µM) | 4 (≈ 1.37 µM) | 4 (≈ 1.37 µM) | 8 (≈ 2.75 µM) | 4 (≈ 1.37 µM) | 32 (≈ 11 µM) | 8 (≈ 2.75 µM) | 4 (≈ 1.37 µM) | 8 (≈ 2.75 µM) | 4 (≈ 1.37 µM) | 4 (≈ 1.37 µM) | 16 (≈ 5.5 µM) | 16 (≈ 5.5 µM) | 8 (≈ 2.75 µM) | CC[C@H](C)[C@H](N)C(=O)N[C@@H](CCCNC(=N)N)C(=O)N[C@@H](CCCNC(=N)N)C(=O)N[C@H](C(=O)N[C@H](C(=O)N[C@@H](CCCNC(=N)N)C(=O)N[C@@H](CCCNC(=N)N)C(=O)N[C@H](C(=O)N[C@@H](CCCNC(=N)N)C(=O)N[C@@H](CCCNC(=N)N)C(=O)N[C@H](C(=O)N[C@H](C(=O)N[C@@H](CCCNC(=N)N)C(=O)N[C@@H](CCCNC(=N)N)C(=O)N[C@H](C(=O)N[C@@H](CCCNC(=N)N)C(=O)N[C@@H](CCCNC(=N)N)C(=O)N[C@H](C(=O)N[C@H](C(=O)N[C@@H](CCCNC(=N)N)C(=O)N[C@@H](CCCNC(=N)N)C(=O)O)[C@@H](C)CC)[C@@H](C)CC)[C@@H](C)CC)[C@@H](C)CC)[C@@H](C)CC)[C@@H](C)CC)[C@@H](C)CC)[C@@H](C)CC [SEQ ID NO: 4] (H-IRRIIRRIRRIIRRIRRIIRR-OH; N-terminus and C-terminus assumed) |
| 32 (≈ 15.1 µM) | >32 | >32 | 16 (≈ 7.55 µM) | 16 (≈ 7.55 µM) | 16 (≈ 7.55 µM) | 32 (≈ 15.1 µM) | >32 | >32 | 8 (≈ 3.78 µM) | 16 (≈ 7.55 µM) | 16 (≈ 7.55 µM) | 8 (≈ 3.78 µM) | >32 | 32 (≈ 15.1 µM) | – | CC[C@H](C)[C@H](N)C(=O)N[C@@H](CCCNC(=N)N)C(=O)N[C@@H](CCCNC(=N)N)C(=O)N[C@@H](CCCNC(=N)N)C(=O)N[C@@H](CCCNC(=N)N)C(=O)N[C@@H](CCCNC(=N)N)C(=O)N[C@@H](CCCNC(=N)N)C(=O)N[C@H](C(=O)N[C@@H](CCCNC(=N)N)C(=O)N[C@@H](CCCNC(=N)N)C(=O)N[C@@H](CCCNC(=N)N)C(=O)N[C@@H](CCCNC(=N)N)C(=O)N[C@@H](CCCNC(=N)N)C(=O)N[C@@H](CCCNC(=N)N)C(=O)O)[C@@H](C)CC [SEQ ID NO: 2] (H-IRRRRRRIRRRRRR-OH; N-terminus and C-terminus assumed) |
| 0.5 (≈ 0.238 µM) | 2 (≈ 0.954 µM) | 4 (≈ 1.91 µM) | 0.5 (≈ 0.238 µM) | 2 (≈ 0.954 µM) | 1 (≈ 0.477 µM) | 1 (≈ 0.477 µM) | 4 (≈ 1.91 µM) | 16 (≈ 7.63 µM) | 8 (≈ 3.82 µM) | 0.5 (≈ 0.238 µM) | 0.5 (≈ 0.238 µM) | 0.5 (≈ 0.238 µM) | 8 (≈ 3.82 µM) | 4 (≈ 1.91 µM) | 0.5 (≈ 0.238 µM) | CC(C)[C@H](N)C(=O)N[C@@H](Cc1c[nH]c2ccccc12)C(=O)N[C@@H](CCCNC(=N)N)C(=O)N[C@@H](Cc1c[nH]c2ccccc12)C(=O)N[C@H](C(=O)N[C@@H](CCCNC(=N)N)C(=O)N[C@@H](CCCNC(=N)N)C(=O)N[C@H](C(=O)N[C@@H](Cc1c[nH]c2ccccc12)C(=O)N[C@@H](CCCNC(=N)N)C(=O)N[C@@H](Cc1c[nH]c2ccccc12)C(=O)N[C@H](C(=O)N[C@@H](CCCNC(=N)N)C(=O)N[C@@H](CCCNC(=N)N)C(=O)O)C(C)C)C(C)C)C(C)C [SEQ ID NO: 6] (H-VWRWVRRVWRWVRR-OH; N-terminus and C-terminus assumed) |
